Measurements published in patent US9187467B2, “2-phenyl benzothiazole linked imidazole compounds as potential anticancer agents and process for the preparation thereof” (Council of Scientific and Industrial Research, priority 2012, dated 2015).

What was measured:
[1] = system: U251; test: SRB anticancer assay, CNS; type: cell-based, human; conditions: Homo sapiens, U-251; U251, 48 h
[2] = system: OVCAR-5; test: SRB anticancer assay, ovarian; type: cell-based, human; conditions: Homo sapiens, OVCAR-5, 48 h
[3] = system: UACC-257; test: SRB anticancer assay, melanoma; type: cell-based, human; conditions: Homo sapiens, UACC-257, 48 h
[4] = system: SF-295; test: SRB anticancer assay, CNS; type: cell-based, human; conditions: Homo sapiens, SF-295, 48 h
[5] = system: NCI-H322M; test: SRB anticancer assay, non-small lung; type: cell-based, human; conditions: Homo sapiens, 48 h
[6] = system: MALME-3M; test: SRB anticancer assay, melanoma; type: cell-based, human; conditions: Homo sapiens, Malme-3M, 48 h
[7] = system: UO-31; test: SRB anticancer assay, renal; type: cell-based, human; conditions: Homo sapiens, UO-31, 48 h
[8] = system: NCI-H460; test: SRB anticancer assay, non-small lung; type: cell-based, human; conditions: Homo sapiens, NCI-H460, 48 h
[9] = system: OVCAR-3; test: SRB anticancer assay, ovarian; type: cell-based, human; conditions: Homo sapiens, OVCAR-3, 48 h
[10] = system: PC-3; test: SRB anticancer assay, prostate; type: cell-based, human; conditions: Homo sapiens, PC-3, 48 h
[11] = system: NCI-H226; test: SRB anticancer assay, non-small lung; type: cell-based, human; conditions: Homo sapiens, NCI-H226, 48 h
[12] = system: LOX IMVI; test: SRB anticancer assay, melanoma; type: cell-based, human; conditions: Homo sapiens, 48 h
[13] = system: HL-60 (TB); test: SRB anticancer assay, leukemia; type: cell-based, human; conditions: Homo sapiens, HL-60, 48 h
[14] = system: 786-0; test: SRB anticancer assay, renal; type: cell-based, human; conditions: Homo sapiens, 786-0, 48 h
[15] = system: HS 578T; test: SRB anticancer assay, breast; type: cell-based, human; conditions: Homo sapiens, 48 h
[16] = system: BT-549; test: SRB anticancer assay, breast; type: cell-based, human; conditions: Homo sapiens, BT-549, 48 h
[17] = system: DU-145; test: SRB anticancer assay, prostate; type: cell-based, human; conditions: Homo sapiens, DU-145, 48 h
[18] = system: A549/ATCC; test: SRB anticancer assay, non-small lung; type: cell-based, human; conditions: Homo sapiens, 48 h
[19] = system: SR; test: SRB anticancer assay, leukemia; type: cell-based, human; conditions: Homo sapiens, 48 h
[20] = system: NCI-H522; test: SRB anticancer assay, non-small lung; type: cell-based, human; conditions: Homo sapiens, NCI-H522, 48 h
[21] = system: K-562; test: SRB anticancer assay, leukemia; type: cell-based, human; conditions: Homo sapiens, K562; K-562, 48 h
[22] = system: IGROV1; test: SRB anticancer assay, ovarian; type: cell-based, human; conditions: Homo sapiens, IGROV-1; IGROV1, 48 h
[23] = system: KM12; test: SRB anticancer assay, colon; type: cell-based, human; conditions: Homo sapiens, KM12, 48 h
[24] = system: NCI-H23; test: SRB anticancer assay, non-small lung; type: cell-based, human; conditions: Homo sapiens, NCI-H23, 48 h
[25] = system: A498; test: SRB anticancer assay, renal; type: cell-based, human; conditions: Homo sapiens, A498, 48 h
[26] = system: HT29; test: SRB anticancer assay, colon; type: cell-based, human; conditions: Homo sapiens, HT-29; HT29, 48 h
[27] = system: SK-MEL-5; test: SRB anticancer assay, melanoma; type: cell-based, human; conditions: Homo sapiens, SK-MEL-5, 48 h
[28] = system: SK-OV-3; test: SRB anticancer assay, ovarian; type: cell-based, human; conditions: Homo sapiens, SK-OV-3, 48 h
[29] = system: ACHN; test: SRB anticancer assay, renal; type: cell-based, human; conditions: Homo sapiens, 48 h
[30] = system: SF-539; test: SRB anticancer assay, CNS; type: cell-based, human; conditions: Homo sapiens, SF-539, 48 h
[31] = system: TK-10; test: SRB anticancer assay, renal; type: cell-based, human; conditions: Homo sapiens, TK-10, 48 h
[32] = system: MDA-MB-231/ATCC; test: SRB anticancer assay, breast; type: cell-based, human; conditions: Homo sapiens, MDA-MB-231, 48 h, MDA-MB-231/ATCC (row head MDA-MB-), 48 h; read-out: GI50
[33] = system: SF-268; test: SRB anticancer assay, CNS; type: cell-based, human; conditions: Homo sapiens, SF-268, 48 h
[34] = system: UACC-62; test: SRB anticancer assay, melanoma; type: cell-based, human; conditions: Homo sapiens, UACC-62, 48 h
[35] = system: T-47D; test: SRB anticancer assay, breast; type: cell-based; conditions: Homo sapiens, T47D, 48 h
[36] = system: SK-MEL-28; test: SRB anticancer assay, melanoma; type: cell-based, human; conditions: Homo sapiens, SK-MEL-28, 48 h

Row | Structure (SMILES) | GI50 [1] | GI50 [2] | GI50 [3] | GI50 [4] | GI50 [5] | GI50 [6] | GI50 [7] | GI50 [8] | GI50 [9] | GI50 [10] | GI50 [12] | GI50 [13] | GI50 [14] | GI50 [15] | GI50 [16] | GI50 [17] | GI50 [18] | GI50 [19] | GI50 [20] | GI50 [21] | other results
1 | COc1cc(OC)c2sc(-c3ccc(-n4cncc4-c4ccc(OC)c(OC)c4)cc3)nc2c1 [Compound 6e, 2-(4-(5-(3,4-Dimethoxyphenyl)-1H-imidazol-1-yl)phenyl)-5,7-dimethoxybenzo[d]thiazole] | 9.19 µM | > 100 µM | > 100 µM | 7 µM | > 100 µM | 59.8 µM | 31.7 µM | 6.06 µM | 3.85 µM | 3.66 µM | > 100 µM | 3.09 µM | > 100 µM | 9.12 µM | 3.78 µM | 27.9 µM | 41.8 µM | 3.03 µM | 5.26 µM | 5.88 µM | GI50 [11]: 6.44 µM; GI50 [22]: 56.1 µM; GI50 [23]: 6.8 µM; GI50 [24]: > 100 µM; GI50 [25]: 2.15 µM; GI50 [26]: 7.13 µM; GI50 [27]: 3.61 µM; GI50 [28]: > 100 µM; GI50 [29]: > 100 µM; GI50 [30]: > 100 µM; GI50 [31]: > 100 µM; GI50 [32]: 28.4 µM; GI50 [33]: 9.96 µM; GI50 [34]: 8.14 µM; GI50 [35]: 4.15 µM; GI50 [36]: > 100 µM
2 | COc1cc(OC)c2sc(-c3ccc(-n4cncc4-c4cc(OC)c(OC)c(OC)c4)cc3)nc2c1 [Compound 6f, 5,7-Dimethoxy-2-(4-(5-(3,4,5-trimethoxyphenyl)-1H-imidazol-1-yl)phenyl)benzo[d]thiazole] | 4.15 µM | > 100 µM | > 100 µM | 4.42 µM | > 100 µM | 3.73 µM | 2.27 µM | 4.67 µM | 3.26 µM | 2.54 µM | 5.4 µM | 3.3 µM | 7.38 µM | 5.23 µM | 3.35 µM | > 100 µM | 6.16 µM | 3.24 µM | 3.27 µM | 3.83 µM | GI50 [22]: 5.87 µM; GI50 [23]: 4.62 µM; GI50 [24]: 6.15 µM; GI50 [25]: 1.83 µM; GI50 [26]: 4.88 µM; GI50 [27]: 2.46 µM; GI50 [28]: > 100 µM; GI50 [29]: 6.67 µM; GI50 [30]: 8.59 µM; GI50 [31]: 9.4 µM; GI50 [32]: 3.51 µM; GI50 [34]: 4.14 µM; GI50 [35]: 3.27 µM
